Measured values as given in ChEMBL document CHEMBL1123520, “Digitoxigenin 3-O-beta-D-furanosides” (1986).

Assays:
Assay type in all cases: functional
Cavia porcellus [1] = species: Cavia porcellus; experiment: Dose required to produce 50% increase in developed tension of inotropic effect in guinea pig atria.
Cavia porcellus [2] = species: Cavia porcellus; experiment: Dose required to produce 75% increase in developed tension of inotropic effect in guinea pig atria.
Cavia porcellus [3] = species: Cavia porcellus; experiment: Dose required to produce negative inotropic (NI) effect in Guinea pig atria; MI is Minimal Activity
Cavia porcellus [4] = species: Cavia porcellus; experiment: Dose required to produce negative inotropic (NI) effect in Guinea pig atria.
Cavia porcellus [5] = species: Cavia porcellus; experiment: Dose required to produce negative inotropic (NI) or arrhythmia (A) effect in Guinea pig atria.
Cavia porcellus [6] = species: Cavia porcellus; experiment: Dose required to produce arrhythmia (A) on Guinea pig atria.
Cavia porcellus [7] = species: Cavia porcellus; experiment: Dose required to produce 75% increase in developed tension of inotropic effect in guinea pig atria; MI is Minimal Activity

| Compound | Dose (Cavia porcellus [1]) | Dose (Cavia porcellus [2]) | Dose (Cavia porcellus [3]) | Dose (Cavia porcellus [4]) | Dose (Cavia porcellus [5]) | Dose (Cavia porcellus [6]) | Dose (Cavia porcellus [7]) |
| --- | --- | --- | --- | --- | --- | --- | --- |
| CC(=O)OC[C@H]1O[C@@H](OC2CC[C@@]3(C)C(CC[C@@H]4[C@@H]3CC[C@]3(C)[C@@H](C5=CC(=O)OC5)CC[C@@]43O)C2)[C@H](OC(C)=O)[C@@H]1OC(C)=O (stereo not given in full) | 1.9 µM | 3 µM | Minimal activity | – | – | – | – |
| C[C@]12CC[C@H](O[C@@H]3O[C@H](CO)[C@@H](O)[C@H]3O)C[C@@H]1CC[C@@H]1[C@@H]2CC[C@]2(C)[C@@H](C3=CC(=O)OC3)CC[C@@]12O | 0.36 µM | 0.64 µM | – | 2.5 µM | – | – | – |
| C[C@]12CC[C@H](O)C[C@H]1CC[C@@H]1[C@@H]2CC[C@]2(C)[C@@H](C3=CC(=O)OC3)CC[C@]12O [DIGITOXIGENIN] | 0.38 µM | 0.64 µM | – | 2.5 µM | – | – | – |
| CC(=O)O[C@H]1[C@H](OC2CC[C@@]3(C)C(CC[C@@H]4[C@@H]3CC[C@]3(C)[C@@H](C5=CC(=O)OC5)CC[C@@]43O)C2)O[C@H]2[C@@H]1OC[C@H]2OC(C)=O (stereo not given in full) | 0.39 µM | 0.53 µM | – | – | 1 µM | – | – |
| CC(=O)O[C@H]1[C@H](OC2CC[C@@]3(C)C(CC[C@@H]4[C@@H]3CC[C@]3(C)[C@@H](C5=CC(=O)OC5)CC[C@@]43O)C2)O[C@H]2[C@@H]1N(C(=O)C(F)(F)F)C[C@H]2OC(C)=O (stereo not given in full) | 0.54 µM | 0.65 µM | – | 1 µM | – | 0.75 µM | – |
| C[C@]12CCC(O[C@@H]3O[C@H]4[C@H](NC[C@H]4O)[C@H]3O)CC1CC[C@@H]1[C@@H]2CC[C@]2(C)[C@@H](C3=CC(=O)OC3)CC[C@@]12O (stereo not given in full) | 0.5 µM | 0.86 µM | – | 2 µM | – | 1.5 µM | – |
| C[C@H]1O[C@@H](O[C@H]2[C@@H](O)C[C@H](O[C@H]3[C@@H](O)C[C@H](O[C@H]4CC[C@@]5(C)[C@H](CC[C@@H]6[C@@H]5C[C@@H](O)[C@]5(C)[C@@H](C7=CC(=O)OC7)CC[C@]65O)C4)O[C@@H]3C)O[C@@H]2C)C[C@H](O)[C@@H]1O [DIGOXIN] | 0.42 µM | 0.82 µM | – | 2.5 µM | – | – | – |
| CC(=O)O[C@H]1[C@H](OC2CC[C@@]3(C)C(CCC4[C@@H]3CC[C@]3(C)[C@@H](C5=CC(=O)OC5)CC[C@@]43O)C2)O[C@H](CN=[N+]=[N-])[C@H]1OC(C)=O (stereo not given in full) | 0.3 µM | 0.44 µM | – | 2.5 µM | – | – | – |
| C[C@]12CC[C@H](O[C@@H]3O[C@H](CN=[N+]=[N-])[C@@H](O)[C@H]3O)C[C@@H]1CC[C@@H]1[C@@H]2CC[C@]2(C)[C@@H](C3=CC(=O)OC3)CC[C@@]12O | 0.25 µM | 0.43 µM | – | – | 1 µM | – | – |
| C[C@]12CC[C@H](O[C@@H]3O[C@H](CN)[C@@H](O)[C@H]3O)C[C@@H]1CC[C@@H]1[C@@H]2CC[C@]2(C)[C@@H](C3=CC(=O)OC3)CC[C@@]12O | 0.26 µM | 0.35 µM | – | – | 5 µM | – | – |
| C[C@]12CCC(O[C@@H]3O[C@H]4[C@H](OC[C@H]4O)[C@H]3O)CC1CC[C@@H]1[C@@H]2CC[C@]2(C)[C@@H](C3=CC(=O)OC3)CC[C@@]12O (stereo not given in full) | 10 µM | – | Minimal activity | – | – | – | Minimal activity |
